{
  "source": "patent US20060014677A1",
  "about": "“Method for maximizing efficacy and predicting and minimizing toxicity of calcineurin inhibitor compounds” (Isotechnika International Inc., priority 2004, published 2006)",
  "key": {"calcineurin": {"test_system": "calcineurin", "experiment": "Calcineurin inhibition assay on whole blood lysates, PK-PD sigmoid Emax model (Study A, phase II)", "format": "in vivo, human", "settings": "FIG. 4A/4B; peak (C2) concentration vs % CNI", "method": "At weeks 1, 6, and 12, serial whole blood samples were drawn and drug concentrations were determined. PK and PD were evaluated using standard non-compartmental analysis and a calcineurin inhibition assay. […] Whole blood lysates were evaluated for their ability to dephosphorylate a ^32P-labelled 19 amino acid peptide substrate in the presence of okadaic acid, a phosphatast type 1 and 2 inhibitor. Background phosphatase 2C activity (CsA and okadaic acid resistant activity) was determined and subtracted from each sample, with the assay performed in the presence and absence of excess added CsA. The remaining phosphatase activity was taken as calcineurin activity.\n(§1) A direct PK-PD correlation was performed using a sigmoid Emax model.\nAIC is the Akaike Information Criterion. It is a dimensionless “goodness of fit” parameter that is a modification of an ‘F-test.’ The lower the AIC number the better the fit. This relationship was constructed using concentrations from trough (C0) through hour 4 (C4)."}, "psoriasis patients": {"test_system": "psoriasis patients", "experiment": "Psoriasis Area and Severity Index (PASI) vs trough concentration in psoriasis patients", "format": "in vivo, human", "settings": "FIG. 2", "from_the_text": "While % CNI is used in FIG. 1 to illustrate drug efficacy, there are other ways to measure transplant drug efficacy or calcineurin inhibitor drug efficacy. For example, in animal models, graft survival in transplantation is an indication of immunosuppressive drug efficacy. However, graft survival is an experimental model that takes a long time to measure and is complicated in that grafts may not survive for reasons other than the effective concentration of immunosuppressive agents. For example, prolonged cold ischemic time, donor/recipient mismatch or surgical technique may affect outcome of a graft. In human transplant patients, episodes of rejection may be indicators of failure of a calcineurin inhibitor. Other markers may be patient survival, in the case of transplant. For Psoriasis, a decrease in Psoriasis Area and Severity Index (PASI) score is an indication of effective treatment of psoriasis. A 75% reduction in PASI score is commonly held as a successful therapy.\nUsing PASI score as another indicator of drug efficacy, FIG. 2 illustrates that as drug concentration increases, the PASI score, an indicator of psoriasis severity, decreases. […] EC50 is an indication of the potency of the drug. […] FIG. 2 illustrates the relationship between trough drug concentration (C0) and PASI score on day 42 of treatment where E equals effect, in this case measured by PASI score."}, "clinical": {"experiment": "clinical", "settings": "human, in vivo", "method": "(§2) At weeks 1, 6, and 12, serial whole blood samples were drawn and drug concentrations were determined. PK and PD were evaluated using standard non-compartmental analysis and a calcineurin inhibition assay. […] Whole blood lysates were evaluated for their ability to dephosphorylate a ^32P-labelled 19 amino acid peptide substrate in the presence of okadaic acid, a phosphatast type 1 and 2 inhibitor. Background phosphatase 2C activity (CsA and okadaic acid resistant activity) was determined and subtracted from each sample, with the assay performed in the presence and absence of excess added CsA. The remaining phosphatase activity was taken as calcineurin activity. Serum creatinine was measured from blood samples, as a measure of renal toxicity.\nas §1\nA measurement taken at 8 hours was used as peak concentration in the absence of a C2 measurement in this study. […] Cmin measurement could be a measurement taken at C0 or at C8, whichever measurement gave the lower measurement.\nPercent fluctuation (FLU) was calculated as shown in Formula (2): [formula]"}, "[1]": {"test_system": "stable renal transplant patients", "settings": "human, in vivo, 12 week", "method": "as §2\nThis discriminant analysis was performed using SPSS for Windows version 10.1 software available from SPSS Inc.\nA measurement taken at 8 hours was used as peak concentration in the absence of a C2 measurement in this study. […] Cmin measurement could be a measurement taken at C0 or at C8, whichever measurement gave the lower measurement. […] Clinical diagnosis of renal toxicity may require an increase of, for example, 50% over baseline."}},
  "data": [
    {"smiles": "C=C/C=C/C[C@@H](C)[C@@H](O)[C@H]1C(=O)N[C@@H](CC)C(=O)N(C)CC(=O)N(C)[C@@H](CC(C)C)C(=O)N[C@@H](C(C)C)C(=O)N(C)[C@@H](CC(C)C)C(=O)N[C@@H](C)C(=O)N[C@H](C)C(=O)N(C)[C@@H](CC(C)C)C(=O)N(C)[C@@H](CC(C)C)C(=O)N(C)[C@@H](C(C)C)C(=O)N1C", "note": "[ISA247]", "values": [
      {"measurement": "EC50", "setting": "calcineurin", "value": "161.8+54.5 ng/mL"},
      {"measurement": "Emax, maximum possible mean PASI", "setting": "psoriasis patients; trough (C0) concentration vs PASI on day 42", "value": "22.9±7", "unit": "PAS1"},
      {"measurement": "EC50", "setting": "psoriasis patients; Homo sapiens, 1008 h, read-out: EC50, trough concentration required to achieve a 50% reduction in PASI, trough (C0), day 42 of treatment", "value": "0.0135 ± 0.0081", "unit": "mg/L"},
      {"measurement": "Cmax, mean", "setting": "clinical", "value": 0.15959, "unit": "µg/mL"},
      {"measurement": "t1/2, comparison between the two drugs", "setting": "clinical", "value": "similar"},
      {"measurement": "time to maximum concentration (tmax), comparison between the two drugs", "setting": "clinical", "value": "similar"},
      {"measurement": "C8, mean", "setting": "clinical; 8 h", "value": 54.327, "unit": "ng/mL"},
      {"measurement": "concentration at 8 h", "setting": "clinical; C8, mean", "value": 0.0373, "unit": "µg/mL"},
      {"measurement": "Cmax", "setting": "clinical; Cmax, mean", "value": 0.188, "unit": "µg/mL"},
      {"measurement": "number of patients with normal renal function (actual group membership)", "setting": "[1]", "value": 121},
      {"measurement": "number of patients with renal toxicity (actual group membership)", "setting": "[1]", "value": 26}
    ]}
  ]
}
